The subject of one assay is platelets. Briefly: Whole cell tyrosine phosphorylation and functional responses of platelets stimulated by rhodocytin. It counts as cell-based. As to conditions: data not shown.
Assay [1] relates to CLEC-2. The assay is described as follows: Precipitation of CLEC-2 from platelet lysates by GST fusion protein of tandem Syk SH2 domains. As to conditions: 30 μM PP2 pretreatment, 50 nM rhodocytin. It counts as cell-based, human. The protocol: (A) Washed murine platelets were stimulated with 50 nM rhodocytin for the indicated times. Whole cell lysates or immunoprecipitates with antibodies against PLCγ2, Vav1, or Vav3 were separated by SDS-PAGE and western blotted with the indicated antibodies. (B) Control or Syk-deficient platelets were stimulated with 30 nM rhodocytin and platelet aggregation was monitored using an aggregometer. (C) (i)(ii) Washed human platelets, pretreated with or without 30 μM PP2, were stimulated with 50 nM rhodocytin or 10 μg/ml of convulxin for the indicated times. Reactions were terminated by addition of an equal volume of 2× lysis buffer. […] The resultant supernatant was incubated with 40 μl of glutathione beads associated with GST fusion protein containing tandem Syk SH2 domains. Precipitated proteins were separated by SDS-PAGE and western blotted with an antibody to CLEC-2. (iii) CLEC-2 associated with 10 μg of CLEC-2 phospho-YXXL-containing peptide plus avidin-sepharose was detected by CLEC-2 antibody. The data are representative of 2-5 experiments.

Assay [2] deals with Syk, Btk, LAT, SLP-76, Vav1, Vav3, PLCγ2. The assay is described as follows: Tyrosine phosphorylation of signaling proteins of the GPVI cascade in platelets. The assay is classed as cell-based, human. As to conditions: PP2 present; not shown.
Assay [3] deals with CLEC-2. The assay is described as follows: CLEC-2 tyrosine phosphorylation in human platelets (immunoprecipitation and western blotting). It counts as cell-based. As to conditions: for block of rhodocytin-induced tyrosine phosphorylation of CLEC-2: 30 μM inhibitor pretreatment, 50 nM rhodocytin; for tyrosine phosphorylation of CLEC-2: 50 μg/ml collagen or 100 μM SFLLRN, time course of up to 5 min. Background: In western blotting, separated proteins are transferred to a membrane and probed.
Experimental: Washed human platelets (1×10^9/ml) pretreated with 1 mM GRGDS (SEQ ID NO: 5) peptide or washed murine platelets (2×10^8/ml) pretreated with 10 μM lotrafiban to inhibit platelet aggregation were stimulated with 50 nM rhodocytin, 100 μM SFLLRN (SEQ ID NO: 6), or 50 μg/ml of collagen. […] Reactions were terminated by addition of 2× ice-cold lysis buffer. Platelet lysates were precleared and detergent-insoluble debris was clarified as described 17. A small aliquot was dissolved with SDS sample buffer for detection of total tyrosine phosphorylation. Antibodies against CLEC-2, PLCγ2, Syk, Btk, SLP-76, LAT, Vav1, or Vav3 were added to the resultant supernatant and incubated overnight. Where indicated, 10 μg of CLEC-2 YXXL-containing peptide plus avidin-Sepharose or GST-fusion protein-associated glutathione Sepharose were incubated with the lysates. […] The samples were lysed with 2× lysis buffer before and 5 min after stimulation. […] After removing insoluble debris by centrifugation, CLEC-2 was immunoprecipitated by addition of protein G. Precipitated proteins or whole cell lysates were separated by SDS-PAGE, electrotransferred, and western blotted by the indicated antibodies.

The next assay addresses Syk (Homo sapiens, UniProt P43405). As to conditions: 10 μg peptide plus avidin-Sepharose, platelet lysates.

`Cc1ccc(-c2nn(C(C)(C)C)c3ncnc(N)c23)cc1` [PP1]: the “block of tyrosine phosphorylation in whole cells and functional responses to rhodocytin” value in the assay on platelets is “block tyrosine phosphorylation in whole cells and all functional responses”. For the compound `CC(C)(C)n1nc(-c2ccc(Cl)cc2)c2c(N)ncnc21` [PP2], the “effect on precipitation of CLEC-2 by Syk fusion protein from rhodocytin-stimulated platelets” value in the assay on CLEC-2 [1] is listed as “abolished”. In assay [2], the “effect on rhodocytin-induced tyrosine phosphorylation of Syk, Btk, LAT, SLP-76, Vav1, Vav3, PLCγ2” value is “abolished”. Moreover, the “block of rhodocytin-induced tyrosine phosphorylation of CLEC-2” value in the assay with CLEC-2 [3] was “block tyrosine phosphorylation of both the 32 and 40 kDa forms of CLEC-2”. Further, in the assay on platelets, the “block of tyrosine phosphorylation in whole cells and functional responses to rhodocytin” value was “block tyrosine phosphorylation in whole cells and all functional responses”. Turning to `Nc1ncnc2c1cnn2-c1ccccc1` [PP3], in the assay with CLEC-2 [3], the “block of rhodocytin-induced tyrosine phosphorylation of CLEC-2” value is “not”.

As for “Biotin-6-aminohexanoic acid (Ahx)-MQDEDGY(PO3H2)ITLNIK-OH”, at Syk, the “interaction of Syk with CLEC-2 YXXL peptide” value is given as “Syk could be precipitated”.

With “Biotin-6-aminohexanoic acid (Ahx)-MQDEDGYITLNIK-OH [non-phosphorylated peptide]”, the “interaction of Syk with CLEC-2 YXXL peptide” value on Syk is “no interaction”. As for Ser-Phe-Leu-Leu-Arg-Asn (SFLLRN), in the assay on CLEC-2 [3], the “tyrosine phosphorylation of CLEC-2” value is reported as “does not undergo tyrosine phosphorylation”. The same measure, in the same setting: then collagen, with “does not undergo tyrosine phosphorylation”.

(Values after patent US20090297508A1, “Compositions and methods for treating hemostasis disorders associated with clec-2 signal transduction” (UNIVERSITY OF YAMANASHI, priority 2005, published 2009).)
